In the OligoGym collection:
These antisense oligonucleotides have a phosphorothioate backbone; sugars and methylation of C are not fully specified.

Experiments:
Conditions in all cases: ASO
[1] = molecular target: SMAD4
[2] = molecular target: BIRC3
[3] = molecular target: MAP2K4
[4] = molecular target: TNF
Also: test concentration or dose not given here.

AAAGCAGAAGAAAAGTGA was tested, and the remaining target (mRNA or protein) (fraction of control) [1] was no less than 1.
In the case of AAATCTTGATTTGCTCTG, the remaining target (mRNA or protein) (fraction of control) [2] is reported as 0.93.
AAATTTGGCTGAGCACATCG showed a remaining target (mRNA or protein) (fraction of control) [3] of 0.53.
With AACACCAATACTCAGGAG the remaining target (mRNA or protein) (fraction of control) [1] was no less than 1.
For AACACCAATCTTATTGCACA, the remaining target (mRNA or protein) (fraction of control) [3] was 0.98.
Sequence AACATCACCTTCACCTTT has a remaining target (mRNA or protein) (fraction of control) [1] of 0.45.
Sequence AACATCATGTTCTTGTTC has a remaining target (mRNA or protein) (fraction of control) [2] of 0.91.
Sequence AAGAAGGAGCACAATCTT has a remaining target (mRNA or protein) (fraction of control) [2] of 0.3.
AAGGATGCACGTTCTAGGTG gave a remaining target (mRNA or protein) (fraction of control) [3] of 0.55.
Work on AATCCTTTCCGACCAGCC yielded a remaining target (mRNA or protein) (fraction of control) [1] of 0.26.
With AATCGACATACATGGGAGAG the remaining target (mRNA or protein) (fraction of control) [3] was 0.55.
Work on AATTGTTCTTCCACTGGT yielded a remaining target (mRNA or protein) (fraction of control) [2] of no less than 1.
ACAGAAGAATACAACTAC showed a remaining target (mRNA or protein) (fraction of control) [1] of no less than 1.
With ACCACTCACAGTGCTGCTTC the remaining target (mRNA or protein) (fraction of control) [3] was 0.68.
Sequence ACCATATTTCACTGATTC has a remaining target (mRNA or protein) (fraction of control) [2] of 0.3.
ACCTTTCCCTATGAATGA gave a remaining target (mRNA or protein) (fraction of control) [1] of 0.65.
Sequence ACGATTACTTGGTGGATG has a remaining target (mRNA or protein) (fraction of control) [1] of 0.88.
Work on ACTCTCTCCACCTTGTCT yielded a remaining target (mRNA or protein) (fraction of control) [1] of 0.57.
ACTGAAGACATTTTGAAT was tested, and the remaining target (mRNA or protein) (fraction of control) [2] was 0.38.
With AGACACTATCACATTTTA the remaining target (mRNA or protein) (fraction of control) [1] was no less than 1.
AGACCTGGACCAGTGATGGC gave a remaining target (mRNA or protein) (fraction of control) [3] of 0.6.
AGAGCCACGGAAATATCC was tested, and the remaining target (mRNA or protein) (fraction of control) [2] was 0.91.
AGCAAGCCACTCTGTCTC showed a remaining target (mRNA or protein) (fraction of control) [2] of 0.5.
For AGCAGGAAAAGTGGAATA, the remaining target (mRNA or protein) (fraction of control) [2] was no less than 1.
ATATAACACAGCTTCAGC gave a remaining target (mRNA or protein) (fraction of control) [2] of no less than 1.
In the case of ATATTTCCACTTCTGTCCAG, the remaining target (mRNA or protein) (fraction of control) [3] is reported as 0.67.
For ATCCTTTGGAAACAGTGA, the remaining target (mRNA or protein) (fraction of control) [1] was no less than 1.
With ATGCTGCTGACGGCCGGGTG the remaining target (mRNA or protein) (fraction of control) [3] was 0.76.
ATGGAGGATGATGGCTTGCT was tested, and the remaining target (mRNA or protein) (fraction of control) [3] was 0.83.
ATGGGAGAGCTGGGAGTAGC was tested, and the remaining target (mRNA or protein) (fraction of control) [3] was no less than 1.
ATTTGTTACTGAAGAAGG was tested, and the remaining target (mRNA or protein) (fraction of control) [2] was no less than 1.
Sequence ATTTTAATTAGAAGCACT has a remaining target (mRNA or protein) (fraction of control) [2] of no less than 1.
In the case of CAAACGTGTTGGCGCTTT, the remaining target (mRNA or protein) (fraction of control) [2] is reported as 0.65.
Work on CAACTTCAGTGCTTTGCGTT yielded a remaining target (mRNA or protein) (fraction of control) [3] of 0.42.
With CAATGGCTTCTGTCCTGT the remaining target (mRNA or protein) (fraction of control) [1] was no less than 1.
CACAAGACCTAACTCAAA showed a remaining target (mRNA or protein) (fraction of control) [2] of 0.73.
CACACAATAGAACGGTCAGA was tested, and the remaining target (mRNA or protein) (fraction of control) [3] was 0.9.
CACCTTCTTTGACAAGTGGC was tested, and the remaining target (mRNA or protein) (fraction of control) [3] was 0.42.
CACTACTCCGCATTACTACA showed a remaining target (mRNA or protein) (fraction of control) [3] of 0.56.
Work on CAGGTGGTAGTGCTGTTA yielded a remaining target (mRNA or protein) (fraction of control) [1] of no less than 1.
CAGTAAATCCATTCTGCT gave a remaining target (mRNA or protein) (fraction of control) [1] of no less than 1.
CAGTAACAATAGGGCAGC was tested, and the remaining target (mRNA or protein) (fraction of control) [1] was no less than 1.
Sequence CAGTCTCTCTATGTGTGGGT has a remaining target (mRNA or protein) (fraction of control) [3] of 0.69.
For CATACATAACAGGTGAAG, the remaining target (mRNA or protein) (fraction of control) [1] was 0.91.
CATACTTGATGGAGCATT gave a remaining target (mRNA or protein) (fraction of control) [1] of no less than 1.
In the case of CATAGGCGGGTGGTGCTG, the remaining target (mRNA or protein) (fraction of control) [1] is reported as no less than 1.
With CATGTCCCTAAAATGTCA the remaining target (mRNA or protein) (fraction of control) [2] was no less than 1.
CCCTTAGGTTTCCCAGCAAGC gave a remaining target (mRNA or protein) (fraction of control) [4] of 0.38.
Work on CCGTGCTCATGGTGTCCTTTC yielded a remaining target (mRNA or protein) (fraction of control) [4] of 0.51.
Work on CCTATTCCCTTTCCTCCCAAA yielded a remaining target (mRNA or protein) (fraction of control) [4] of 0.14.
CCTCGCTGAGTTCTGCCGGCT showed a remaining target (mRNA or protein) (fraction of control) [4] of 0.99.
With CCTCTTTCCCTTACCCTCCTG the remaining target (mRNA or protein) (fraction of control) [4] was 0.1.
CCTTCACTATGGCTGCCC was tested, and the remaining target (mRNA or protein) (fraction of control) [1] was 0.3.
Sequence CCTTCGATGTATAGGACA has a remaining target (mRNA or protein) (fraction of control) [2] of no less than 1.
Work on CTAACTCAAAGGAGGAAA yielded a remaining target (mRNA or protein) (fraction of control) [2] of no less than 1.
Sequence CTGAAATTTTGATTGAAT has a remaining target (mRNA or protein) (fraction of control) [2] of 0.86.
CTGGTCCCTTGGTGTCCTCGC gave a remaining target (mRNA or protein) (fraction of control) [4] of 0.69.
Work on CTGGTCTTTCCACGTCCCATT yielded a remaining target (mRNA or protein) (fraction of control) [4] of 0.17.
For CTGTATGGTAACACATTT, the remaining target (mRNA or protein) (fraction of control) [1] was no less than 1.
CTTAGAGGTACGTAAAAT showed a remaining target (mRNA or protein) (fraction of control) [2] of 0.71.
Sequence CTTCTCCAGGCTACTAGA has a remaining target (mRNA or protein) (fraction of control) [2] of 0.5.
In the case of CTTCTTCCCTGTTCCCCTGGC, the remaining target (mRNA or protein) (fraction of control) [4] is reported as 0.2.
CTTGAGCTCAGCTCCCTCAGG showed a remaining target (mRNA or protein) (fraction of control) [4] of 0.45.
Sequence GAAACCAAATTAGGATAA has a remaining target (mRNA or protein) (fraction of control) [2] of 0.88.
Sequence GAAATATATAGCTGCTACAA has a remaining target (mRNA or protein) (fraction of control) [3] of no less than 1.
GAAGCCTCCCCGCTCTTTGCC gave a remaining target (mRNA or protein) (fraction of control) [4] of 0.25.
With GAATGAAGGAAAAGAAAT the remaining target (mRNA or protein) (fraction of control) [1] was no less than 1.
With GAATTTCAATCCAGCAAG the remaining target (mRNA or protein) (fraction of control) [1] was no less than 1.
